For 15 compounds, EC50 results are on record in patent US8304412B2, “Cyclically substituted 3,5-dicyano-2-thiopyridines and use thereof” (Bayer Intellectual Property GmbH, priority 2006, dated 2012).

SMILES strings stand for the structures.

Broadly, the EC50 is the midpoint of the concentration-response curve. A higher EC50 goes with lower potency in that assay.

Assay type in all cases: cell-based
One test has as its target T1, adenosine A2b receptor (Homo sapiens, UniProt P29275).
T1 construct: expressed in transfected cells; host or cells: CHO (Chinese Hamster Ovary)
T1 sequence (P29275 1-332): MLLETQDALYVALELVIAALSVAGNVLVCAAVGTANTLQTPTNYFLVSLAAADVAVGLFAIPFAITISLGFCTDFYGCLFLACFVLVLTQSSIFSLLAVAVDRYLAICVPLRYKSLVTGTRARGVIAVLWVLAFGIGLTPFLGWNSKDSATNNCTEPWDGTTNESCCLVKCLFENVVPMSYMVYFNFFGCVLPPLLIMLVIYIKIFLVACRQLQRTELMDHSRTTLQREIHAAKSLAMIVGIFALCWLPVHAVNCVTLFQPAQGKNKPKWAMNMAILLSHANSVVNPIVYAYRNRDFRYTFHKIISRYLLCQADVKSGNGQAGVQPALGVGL
Kind of test: Indirect determination of adenosine agonism by gene expression (luciferase), A2b cells. The conditions noted are these: stably transfected CHO cells; 50% of maximum luciferase stimulation. From the text: (§1) B-1. Indirect Determination of the Adenosine Agonism by Way of Gene Expression
(§2) Cells of the CHO (Chinese Hamster Ovary) permanent cell line are transfected stably with the cDNA for the adenosine receptor subtypes A1, A2a and A2b. The adenosine A1 receptors are coupled to the adenylate cyclase by way of Gi proteins, while the adenosine A2a and A2b receptors are coupled by way of Gs proteins. In correspondence with this, the formation of cAMP in the cell is inhibited or stimulated, respectively. After that, expression of the luciferase is modulated by way of a cAMP-dependent promoter. The luciferase test is optimized, with the aim of high sensitivity and reproducibility, low variance and good suitability for implementation on a robot system, by varying several test parameters, such as cell density, duration of the growth phase and the test incubation, forskolin concentration and medium composition. The following test protocol is used for pharmacologically characterizing cells and for the robot-assisted substance screening:
(§3) The stock cultures are grown, at 37° C. and under 5% CO2, in DMEM/F12 medium containing 10% FCS (fetal calf serum) and in each case split 1:10 after 2-3 days. The test cultures are seeded in 384-well plates with 2000 cells per well and grown at 37° C. for approx. 48 hours. The medium is then replaced with a physiological sodium chloride solution (130 mM sodium chloride, 5 mM potassium chloride, 2 mM calcium chloride, 20 mM HEPES, 1 mM magnesium chloride hexahydrate, 5 mM sodium bicarbonate, pH 7.4). The substances to be tested, which are dissolved in DMSO, are pipetted into the test cultures (maximum final concentration of DMSO in the test mixture: 0.5%) in a dilution series of from 5×10^−11M to 3×10^−6M (final concentration). 10 minutes later, forskolin is added to the A1 cells and all the cultures are subsequently incubated at 37° C. for four hours. After that, 35 μl of a solution which is composed of 50% lysis reagent (30 mM disodium hydrogenphosphate, 10% glycerol, 3% TritonX100, 25 mM TrisHCl, 2 mM dithiotreitol (DTT), pH 7.8) and 50% luciferase substrate solution (2.5 mM ATP, 0.5 mM luciferin, 0.1 mM coenzyme A, 10 mM tricine, 1.35 mM magnesium sulfate, 15 mM DTT, pH 7.8) are added to the test cultures, which are shaken for approx. 1 minute and the luciferase activity is measured using a camera system. The EC50 values are determined, i.e., the concentrations at which 50% of the luciferase answer is inhibited in the case of the A1 cell, and, respectively, 50% of the maximum stimulation with the corresponding substance is achieved in the case of the A2b and A2a cells. […] Pharmacol., 357 (1998), 1-9).
(§4) Table 1 below lists the EC50 values of representative working examples for the receptor stimulation on adenosine A1, A2a and A2b receptor subtypes: […]

In the next test the target is T2, adenosine A1 receptor (Homo sapiens, UniProt P30542).
T2 construct: expressed in transfected cells; host or cells: CHO (Chinese Hamster Ovary)
T2 sequence (P30542 1-326): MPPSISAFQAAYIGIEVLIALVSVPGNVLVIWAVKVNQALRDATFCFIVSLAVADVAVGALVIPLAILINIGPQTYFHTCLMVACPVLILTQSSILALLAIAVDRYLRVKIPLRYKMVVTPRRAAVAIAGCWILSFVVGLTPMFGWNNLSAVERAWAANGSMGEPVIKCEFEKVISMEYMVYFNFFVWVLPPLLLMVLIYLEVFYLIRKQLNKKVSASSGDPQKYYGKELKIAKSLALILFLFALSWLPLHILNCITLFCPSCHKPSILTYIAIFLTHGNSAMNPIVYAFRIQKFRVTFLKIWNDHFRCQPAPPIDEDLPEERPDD
The test is described as follows: Indirect determination of adenosine agonism by gene expression (luciferase), A1 cells. Conditions: 1 μM forskolin; stably transfected CHO cells; 50% inhibition of luciferase answer.
Source text: as §1, §2, §3, §4

For a further test, the target named is T3, adenosine A2a receptor (Homo sapiens, UniProt P29274).
T3 construct: expressed in transfected cells; host or cells: CHO (Chinese Hamster Ovary)
T3 sequence (P29274 whole entry): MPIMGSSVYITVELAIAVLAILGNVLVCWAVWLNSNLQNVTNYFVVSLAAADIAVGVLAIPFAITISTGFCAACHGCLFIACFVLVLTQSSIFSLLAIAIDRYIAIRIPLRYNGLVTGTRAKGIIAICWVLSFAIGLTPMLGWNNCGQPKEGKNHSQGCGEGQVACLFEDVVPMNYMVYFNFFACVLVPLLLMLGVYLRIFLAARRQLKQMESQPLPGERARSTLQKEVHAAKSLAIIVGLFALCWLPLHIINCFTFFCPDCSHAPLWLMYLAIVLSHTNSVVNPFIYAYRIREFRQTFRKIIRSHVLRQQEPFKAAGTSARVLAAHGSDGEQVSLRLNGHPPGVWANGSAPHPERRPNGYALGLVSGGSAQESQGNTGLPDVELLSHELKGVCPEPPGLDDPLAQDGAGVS
Kind of test: Indirect determination of adenosine agonism by gene expression (luciferase), A2a cells. Conditions: stably transfected CHO cells; 50% of maximum luciferase stimulation.
Source text: as §1, §2, §3, §4

Regarding `N#Cc1cnc(SCc2csc(-c3ccc(C(=O)O)cc3)n2)c(C#N)c1C1CCCOC1` (racemic) [Example 65, rac-4-[4-({[3,5-Dicyano-4-(tetrahydro-2H-pyran-3-yl)pyridin-2-yl]sulfanyl}methyl)-1,3-thiazol-2-yl]benzoic acid], the EC50 on adenosine A2b receptor was 860 nM; at adenosine A1 receptor, 9.5 nM; at adenosine A2a receptor, > 3000 nM.
The like results for `N#Cc1c(N)nc(SCc2csc(-c3ccc(C(=O)O)cc3)n2)c(C#N)c1C1CCCCO1` (single isomer, unassigned) [Example 23] were, in that order, 75 nM, 0.4 nM and 620 nM.
The like results for `Cc1nc(SCc2csc(-c3ccc(C(=O)O)cc3)n2)c(C#N)c(C2CCCCO2)c1C#N` (single isomer, unassigned; (+)) [Example 56, (+)-4-[4-({[3,5-Dicyano-6-methyl-4-(tetrahydro-2H-pyran-2-yl)pyridin-2-yl]sulfanyl}methyl)-1,3-thiazol-2-yl]benzoic acid] were, in that order, 51 nM, 0.8 nM and > 3000 nM.
On the same counts, the results for `N#Cc1c(N)nc(SCc2csc(-c3ccc(C(=O)O)cc3)n2)c(C#N)c1C1CCCOC1` (single isomer, unassigned; (+)) [Example 62, (+)-4-[4-({[6-Amino-3,5-dicyano-4-(tetrahydro-2H-pyran-3-yl)pyridin-2-yl]sulfanyl}methyl)-1,3-thiazol-2-yl]benzoic acid] are > 3000 nM, 0.06 nM and > 3000 nM.
In the case of `N#Cc1c(N)nc(SCc2csc(-c3ccc(Cl)cc3)n2)c(C#N)c1C1CCCCO1` (single isomer, unassigned; ent-2) [Example 15, ent-2-Amino-6-({[2-(4-chlorophenyl)-1,3-thiazol-4-yl]methyl}thio)-4-(tetrahydro-2H-pyran-2-yl)-pyridine-3,5-dicarbonitrile], the EC50 at adenosine A2b receptor was 670 nM; at adenosine A1 receptor, 10 nM; at adenosine A2a receptor, 380 nM.
Turning to `N#Cc1c(N)nc(SCc2csc(-c3ccc(Cl)cc3)n2)c(C#N)c1[C@H]1CC[C@H](O)CC1` [Example 3, 2-Amino-6-({[2-(4-chlorophenyl)-1,3-thiazol-4-yl]methyl}thio)-4-(trans-4-hydroxycyclohexyl)-pyridine-3,5-dicarbonitrile], the EC50 was found to be 558 nM at adenosine A2b receptor, 0.8 nM at adenosine A1 receptor and 1260 nM at adenosine A2a receptor.
The like results for `N#Cc1c(N)nc(SCc2csc(-c3ccc(Cl)cc3)n2)c(C#N)c1[C@H]1CC[C@@H](O)CC1` [Example 4] were, in that order, 320 nM, 2.9 nM and 1100 nM.
The like results for `N#Cc1c(N)nc(SCc2csc(-c3ccc(Cl)cc3)n2)c(C#N)c1C1CCN(C(=O)CO)CC1` [Example 9, 2-Amino-6-({[2-(4-chlorophenyl)-1,3-thiazol-4-yl]methyl}thio)-4-(1-glycoloylpiperidin-4-yl)-pyridine-3,5-dicarbonitrile] were, in that order, 791 nM, 8.9 nM and > 3000 nM.
With `N#Cc1c(N)nc(SCc2csc(-c3ccc(Cl)cc3)n2)c(C#N)c1C1CCCCC1` [Example 29, 2-Amino-6-({[2-(4-chlorophenyl)-1,3-thiazol-4-yl]methyl}thio)-4-cyclohexylpyridine-3,5-dicarbonitrile], the figures for the EC50 on adenosine A2b receptor, at adenosine A1 receptor and on adenosine A2a receptor were 345 nM, 3.8 nM and > 3000 nM, respectively.
Consider `CN1CCN(CCCNc2nc(SCc3csc(-c4ccc(Cl)cc4)n3)c(C#N)c(C3CCCCC3)c2C#N)CC1` [Example 35], for which the EC50 is > 3000 nM on adenosine A2b receptor, 68 nM at adenosine A1 receptor and 1470 nM on adenosine A2a receptor.
Regarding `N#Cc1c(N)nc(SCc2cccc(C(=O)O)c2)c(C#N)c1C1CCCCO1` (stereo not drawn) [Example 51], the results for the EC50 on adenosine A2b receptor, at adenosine A1 receptor and on adenosine A2a receptor were > 3000 nM, 6.8 nM and > 3000 nM, respectively.
As for `N#Cc1c(N)nc(SCc2coc(-c3ccc(Cl)cc3)n2)c(C#N)c1C1CCCOC1` (stereo not drawn) [Example 58, 2-Amino-6-({[2-(4-chlorophenyl)-1,3-oxazol-4-yl]methyl}sulfanyl)-4-(tetrahydro-2H-pyran-3-yl)-pyridine-3,5-dicarbonitrile], the EC50 at adenosine A2b receptor is 950 nM; on adenosine A1 receptor, 11 nM; at adenosine A2a receptor it was > 3000 nM.
On the same counts, the results for `N#Cc1c(N)nc(SCc2cccc(C(N)=O)c2)c(C#N)c1C1CCCCC1` [Example 70] are 22 nM, 0.08 nM and 224 nM.
The like results for `Cc1sc(-c2ccc(Cl)cc2)nc1CSc1nc(N)c(C#N)c(C2CCCCC2)c1C#N` [Example 76] were, in that order, > 3000 nM, 106 nM and > 3000 nM.
The like results for `N#Cc1c(N)nc(SCc2coc(-c3ccc(F)c(Cl)c3)n2)c(C#N)c1[C@H]1CC[C@@H](O)CC1` [Example 78] were, in that order, > 3000 nM, 17 nM and > 3000 nM.
